In ChEMBL document CHEMBL5032511, “Improving Druggability of Novel Diarylpyrimidine NNRTIs by a Fragment-Based Replacement Strategy: From Biphenyl-DAPYs to Heteroaromatic-Biphenyl-DAPYs” (J Med Chem, 2021):

Legend:
[1] = test system: Human immunodeficiency virus 1; assay: Anti-viral activity against HIV1 harboring RT E138K mutant infected […] cells assessed as protection against virus-induced cytopathic effect by MTT assay; type: functional, organism-based; details: Human immunodeficiency virus 1, MT4
[2] = target: Human immunodeficiency virus type 1 reverse transcriptase (Human immunodeficiency virus 1, UniProt Q72547); assay: Inhibition of recombinant wild-type HIV1 p66/p51 reverse transcriptase assessed as inhibition of [3H][…] incorporation using poly (rA) as templates incubated for 40 mins by spectrofluorometer
[3] = test system: Human immunodeficiency virus 1; assay: Anti-viral activity against HIV1 harboring RT K103N mutant infected […] cells assessed as protection against virus-induced cytopathic effect by MTT assay; type: functional, organism-based; details: Human immunodeficiency virus 1, MT4
[4] = test system: Human immunodeficiency virus 1; assay: Antiviral activity against HIV1 IIIB infected human MT4 cells assessed as protection against virus-induced cytopathic effect by MTT assay; type: functional, organism-based; details: Human immunodeficiency virus 1, IIIB
[5] = test system: Human immunodeficiency virus 1; assay: Anti-viral activity against HIV1 harboring RT Y188L mutant infected […] cells assessed as protection against virus-induced cytopathic effect by MTT assay; type: functional, organism-based; details: Human immunodeficiency virus 1, MT4
[6] = test system: Human immunodeficiency virus 1; assay: Anti-viral activity against HIV1 harboring RT L100I mutant infected […] cells assessed as protection against virus-induced cytopathic effect by MTT assay; type: functional, organism-based; details: Human immunodeficiency virus 1, MT4
[7] = Selectivity index, ratio of CC50 for mock infected human MT4 cells to IC50 for HIV1 IIIB infected human MT4 cells
[8] = test system: Human immunodeficiency virus 1; assay: Anti-viral activity against HIV1 harboring RT Y181C mutant infected […] cells assessed as protection against virus-induced cytopathic effect by MTT assay; type: functional, organism-based; details: Human immunodeficiency virus 1, MT4
[9] = Cytotoxicity against mock infected human MT4 cells by MTT assay
[10] = Aqueous solubility of compound in PBS at pH 7 by HPLC-UV analysis
[11] = Aqueous solubility of compound in PBS at pH 7.4 by HPLC-UV analysis
[12] = Oral bioavailability in Sprague-Dawley rat at 5 mg/kg by LCMS analysis; type: ADME, organism-based; details: in vivo
[13] = Solubility of compound in PBS at pH 4.5 by HPLC-UV analysis; type: physicochemical
[14] = Stability in human liver microsome assessed as binding constant at 1 uM in presence of NADPH by LC/MS/MS analysis; details: microsomes
in vitro [15] = details: rat, microsomes
[16] = Stability in rat liver microsome assessed as binding constant at 1 uM in presence of NADPH by LC/MS/MS analysis; details: microsomes
in vitro [17] = details: rat, microsomes; remark: listed apart in the source

Compound | EC50 [1] [nM] | IC50 [2] [nM] | EC50 [3] [nM] | EC50 [4] [nM] | EC50 [5] [nM] | EC50 [6] [nM] | selectivity ratio [7] | EC50 [8] [nM] | CC50 [9] [nM] | other results
N#Cc1ccc(Nc2nccc(Nc3c(F)cc(-c4ccco4)cc3F)n2)cc1 | 10 | 10 | 71 | 2.1 | 2170 | 86 | 7910 | 84 | 16600 | –
N#Cc1ccc(Nc2nccc(Nc3c(F)cc(-c4ccncc4)cc3F)n2)cc1 | 4 | 7.4 | 8 | – | 417 | 20.4 | – | 15 | – | –
N#Cc1ccc(Nc2nccc(Nc3c(F)cc(-c4cc(Cl)nc(Cl)c4)cc3F)n2)cc1 | 311 | 96 | 1090 | 56 | – | – | 97 | – | 5400 | –
N#Cc1ccc(Nc2nccc(Nc3c(F)cc(-c4cc(F)nc(F)c4)cc3F)n2)cc1 | 57 | 13 | 199 | 5.6 | – | 898 | 1970 | 476 | 11000 | –
Cc1cc(/C=C/C#N)cc(C)c1Nc1ccnc(Nc2ccc(C#N)cc2)n1 [RILPIVIRINE] | – | – | – | – | – | – | – | – | – | solubility ([10]; buffer): < 1 µg/mL; solubility ([11]; buffer): < 1 µg/mL
N#Cc1ccc(Nc2nccc(Nc3c(F)cc(-c4ccnc(F)c4F)cc3F)n2)cc1 | 13.5 | 8.3 | 11.5 | 2 | 1640 | 63 | > 147000 | 21.3 | > 286000 | –
N#Cc1ccc(Nc2nccc(Nc3c(F)cc(-c4csc5ccccc45)cc3F)n2)cc1 | 601 | 59 | 5790 | 124 | 7480 | 6450 | 132 | 6210 | 16000 | –
N#Cc1ccc(Nc2nccc(Nc3c(F)cc(-c4ccoc4)cc3F)n2)cc1 | 13 | 10 | 35 | 3.2 | 2180 | 100 | 3290 | 114 | 10600 | –
N#Cc1ccc(Nc2nccc(Nc3c(F)cc(-c4cccnc4)cc3F)n2)cc1 | 149 | 58 | 223 | 7.4 | – | 583 | 32700 | 473 | 242000 | –
Cl.N#Cc1ccc(Nc2nccc(Nc3c(F)cc(-c4ccc(C#N)cc4)cc3F)n2)cc1 | – | – | – | – | – | – | – | – | – | solubility ([10]; PBS): 5.6 µg/mL
N#Cc1ccc(Nc2nccc(Nc3c(F)cc(-c4ccnc(Cl)c4)cc3F)n2)cc1 | 61 | 14 | 101 | 6.8 | > 1540 | 415 | 622 | 254 | 4200 | –
COc1cc(-c2cc(F)c(Nc3ccnc(Nc4ccc(C#N)cc4)n3)c(F)c2)ccn1 | 260 | 30 | 239 | 13 | – | 645 | 501 | 389 | 6700 | –
N#Cc1ccc(Nc2nccc(Nc3c(F)cc(-c4ccsc4)cc3F)n2)cc1 | 14 | 11 | 171 | 3.9 | 1040 | 301 | 14000 | 212 | 55400 | –
N#Cc1ccc(Nc2nccc(Nc3c(F)cc(-c4ccnc(-c5ccnc(Cl)c5)c4)cc3F)n2)cc1 | 160 | 110 | 176 | 16.8 | – | 1150 | 3070 | 779 | 51000 | –
N#Cc1ccc(Nc2nccc(Nc3c(F)cc(-c4ccncc4F)cc3F)n2)cc1 | 2.3 | 9.1 | 1.9 | 1.3 | 92 | 7.4 | 2570 | 7 | 3300 | –
Cc1cc(/C=C/C#N)cc(C)c1Nc1ccnc(Nc2ccc(C#N)cc2)n1.Cl [RILPIVIRINE HYDROCHLORIDE] | – | – | – | – | – | – | – | – | – | bioavailability [12]: 32%
O=C1Nc2ccc(Cl)cc2[C@@](C#CC2CC2)(C(F)(F)F)O1 [EFAVIRENZ] | 7.5 | – | – | – | 269 | – | – | – | > 6330 | –
O=c1c2nc([N+](=O)[O-])cn2ccn1Cc1ccccc1 | – | – | – | – | – | – | – | – | – | solubility ([13]; buffer): Insoluble

Compound | EC50 [1] [nM] | IC50 [2] [nM] | EC50 [3] [nM] | EC50 [4] [nM] | EC50 [5] [nM] | EC50 [6] [nM] | selectivity ratio [7] | EC50 [8] [nM] | CC50 [9] [nM] | other results
Cc1cc(-c2cc(F)c(Nc3ccnc(Nc4ccc(C#N)cc4)n3)c(F)c2)ccn1 | 52 | 29 | 77.7 | 4.1 | 1090 | 383 | 777 | 144 | 3200 | –
Cc1cc(C#Cc2ccccn2)cc(C)c1Oc1ccnc(Nc2ccc(C#N)cc2)n1 | – | – | – | 3 | – | – | – | – | – | –
N#Cc1ccc(Nc2nccc(Nc3c(F)cc(-c4coc5ccccc45)cc3F)n2)cc1 | 335 | 28 | 1300 | 44 | 6340 | 3450 | 1990 | 2750 | 87000 | –
N#Cc1ccc(Nc2nccc(Nc3c(F)cc(-c4cn[nH]c4)cc3F)n2)cc1 | 101 | 43 | 251 | 10 | – | – | 298 | – | 3100 | –
N#Cc1ccc(Nc2nccc(Nc3c(F)cc(-c4ccnc(C#N)c4F)cc3F)n2)cc1 | 11 | 11 | 14 | 2 | 18300 | 80 | > 143000 | 42 | > 282000 | –
N#Cc1ccc(Nc2nccc(Nc3c(F)cc(-c4ccnc(F)c4)cc3F)n2)cc1 | 14.3 | 11 | 42 | 3.8 | 1260 | 397 | 1310 | 80 | 5000 | –
N#Cc1ccc(Nc2nccc(Nc3c(F)cc(-c4ccc(C#N)cc4)cc3F)n2)cc1 | – | – | – | 1 | – | – | – | – | > 294000 | K [14]: 0.0219 min⁻¹; bioavailability [12]: 44%; half-life at 1 µM (in vitro [15]): 44.3 min; K [16]: 0.0157 min⁻¹; microsomal CLint at 1 µM (in vitro [17]): 15.7 µL/min/mg
Cc1cc(C#Cc2ccccc2)cc(C)c1Oc1ccnc(Nc2ccc(C#N)cc2)n1 | – | – | – | 38 | – | – | – | – | – | –
N#Cc1ccc(Nc2nccc(Nc3c(F)cc(-c4ccc(N)cc4)cc3F)n2)cc1 | 37 | 37 | 144 | 9.2 | 1180 | 561 | > 32900 | 482 | > 303000 | –
Cc1cc(C#N)cc(C)c1Oc1nc(Nc2ccc(C#N)cc2)nc(N)c1Br [ETRAVIRINE] | – | – | 3.4 | – | 29.3 | – | – | – | > 4600 | solubility ([10]; PBS): < 1 µg/mL; solubility ([11]; PBS): < 1 µg/mL
N#Cc1ccc(Nc2nccc(Nc3c(F)cc(-c4cncnc4)cc3F)n2)cc1 | 137 | 87 | 326 | 11.9 | – | 1790 | 229 | – | 2700 | –
N#Cc1ccc(Nc2nccc(Nc3c(F)cc(-c4ccnc(Cl)c4Cl)cc3F)n2)cc1 | 39 | 16 | 48 | 5.5 | 1640 | 325 | 3670 | 73 | 20000 | –
N#Cc1ccc(Nc2nccc(Nc3c(F)cc(-c4cccs4)cc3F)n2)cc1 | 11 | 5.9 | 102 | 4.1 | 1130 | 363 | > 74600 | 136 | > 308000 | –
Cc1ccnc2c1NC(=O)c1cccnc1N2C1CC1 [NEVIRAPINE] | 288 | – | – | – | – | – | – | – | > 15000 | –
Cc1cc(-c2cc(F)c(Nc3ccnc(Nc4ccc(C#N)cc4)n3)c(F)c2)cc(C)n1 | – | 336 | – | 56 | – | – | 21 | – | 1200 | –
Cc1cc(-c2ccc(C#N)cc2)cc(C)c1Nc1ccnc(Nc2ccc(C#N)cc2)n1 | – | – | – | 1 | – | – | 2080 | – | 2100 | K [14]: 0.047 min⁻¹; K [16]: 0.045 min⁻¹
O=c1c2nc([N+](=O)[O-])cn2ccn1Cc1cccnc1 | – | – | – | – | – | – | – | – | – | solubility ([13]; PBS, read-out: solubility): > 200 µM
